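Test compounds were applied to cells in 96-well plates for 48 hours at 5 doses. Abbreviation: GI50, concentration required for 50% inhibition of growth.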 The source made the active and inactive calls. No stated cut-off is given here; in the data, active = GI50 up to about 1.1 µM and inactive = higher.
Key:
Assay in all cases: NCI tumour cell line growth inhibition, 48 h
U-251 = system: U-251
NCI-H23 = system: NCI-H23
EKVX = system: EKVX
OVCAR-4 = system: OVCAR-4
CCRF-CEM = system: CCRF-CEM
HOP-92 = system: HOP-92
UACC-257 = system: UACC-257
Malme-3M = system: Malme-3M
TK-10 = system: TK-10
SNB-75 = system: SNB-75
M19-MEL = system: M19-MEL
SK-MEL-28 = system: SK-MEL-28
LXFL 529 = system: LXFL 529
HOP-18 = system: HOP-18
786-0 = system: 786-0
A549 = system: A549
SK-MEL-5 = system: SK-MEL-5
M14 = system: M14
HCT-15 = system: HCT-15
HCT-116 = system: HCT-116
XF498 = system: XF498
UO-31 = system: UO-31
SN12C = system: SN12C
OVCAR-3 = system: OVCAR-3
SF-539 = system: SF-539
IGROV-1 = system: IGROV-1
COLO 205 = system: COLO 205
NCI-H226 = system: NCI-H226
KM12 = system: KM12
K562 = system: K562
HL-60 = system: HL-60
SK-MEL-2 = system: SK-MEL-2
HCC 2998 = system: HCC 2998
DMS-273 = system: DMS-273
ACHN = system: ACHN
SF-268 = system: SF-268
OVCAR-5 = system: OVCAR-5
SF-295 = system: SF-295
HT-29 = system: HT-29
MOLT-4 = system: MOLT-4
DMS-114 = system: DMS-114
OVCAR-8 = system: OVCAR-8
DLD-1 = system: DLD-1
SNB-78 = system: SNB-78
SK-OV-3 = system: SK-OV-3
RPMI-8226 = system: RPMI-8226
NCI-H460 = system: NCI-H460
CAKI-1 = system: CAKI-1
RXF 393 = system: RXF 393
KM-20L2 = system: KM-20L2
SNB-19 = system: SNB-19
HOP-62 = system: HOP-62
NCI-H522 = system: NCI-H522
SW-620 = system: SW-620
SR = system: SR
LOX IMVI = system: LOX IMVI
A498 = system: A498
UACC-62 = system: UACC-62

Measured: GI50

CC1(S)CC2C(CC1Sc1ccccc1)C2(C)C (stereo not given)
> 100 µM: HCT-15
inactive: U-251 > 100 µM | NCI-H23 > 100 µM | EKVX > 100 µM | OVCAR-4 > 100 µM | CCRF-CEM > 100 µM | HOP-92 > 100 µM | UACC-257 > 100 µM | Malme-3M > 100 µM | TK-10 > 100 µM | SNB-75 > 100 µM | M19-MEL > 100 µM | SK-MEL-28 > 100 µM | LXFL 529 > 100 µM | HOP-18 > 100 µM | 786-0 > 100 µM | A549 > 100 µM | SK-MEL-5 8.67 µM | M14 > 100 µM | HCT-116 > 100 µM | XF498 > 100 µM | UO-31 > 100 µM | SN12C > 100 µM | OVCAR-3 > 100 µM | SF-539 > 100 µM | IGROV-1 > 100 µM | COLO 205 > 100 µM | NCI-H226 > 100 µM | KM12 > 100 µM | K562 > 100 µM | HL-60 > 100 µM | SK-MEL-2 > 100 µM | HCC 2998 > 100 µM | DMS-273 > 100 µM | ACHN > 100 µM | SF-268 > 100 µM | OVCAR-5 > 100 µM | SF-295 > 100 µM | HT-29 > 100 µM | MOLT-4 > 100 µM | DMS-114 > 100 µM | OVCAR-8 > 100 µM | DLD-1 > 100 µM | SNB-78 > 100 µM | SK-OV-3 > 100 µM | RPMI-8226 > 100 µM | NCI-H460 > 100 µM

C#CCN(N=O)C(=O)NCCCCC(NC(C)=O)C(=O)NCc1ccccc1 (stereo not given)
> 100 µM: HCT-15
inactive: U-251 > 100 µM | NCI-H23 > 100 µM | CAKI-1 > 100 µM | EKVX > 100 µM | RXF 393 > 100 µM | OVCAR-4 > 100 µM | CCRF-CEM 28.4 µM | HOP-92 > 100 µM | UACC-257 > 100 µM | Malme-3M > 100 µM | TK-10 > 100 µM | SNB-75 > 100 µM | M19-MEL > 100 µM | SK-MEL-28 > 100 µM | LXFL 529 > 100 µM | HOP-18 > 100 µM | 786-0 > 100 µM | KM-20L2 > 100 µM | A549 > 100 µM | SK-MEL-5 > 100 µM | M14 > 100 µM | SNB-19 > 100 µM | HCT-116 > 100 µM | HOP-62 > 100 µM | XF498 2.68 µM | UO-31 > 100 µM | NCI-H522 25.5 µM | SN12C > 100 µM | OVCAR-3 > 100 µM | SF-539 > 100 µM | SW-620 > 100 µM | SR 53 µM | IGROV-1 > 100 µM | COLO 205 > 100 µM | NCI-H226 > 100 µM | KM12 > 100 µM | K562 54.1 µM | LOX IMVI > 100 µM | A498 > 100 µM | HCC 2998 > 100 µM | ACHN > 100 µM | SF-268 > 100 µM | OVCAR-5 > 100 µM | UACC-62 > 100 µM | SF-295 > 100 µM | HT-29 > 100 µM | MOLT-4 28.4 µM | DMS-114 > 100 µM | OVCAR-8 > 100 µM | DLD-1 > 100 µM | SNB-78 > 100 µM | SK-OV-3 > 100 µM | RPMI-8226 51.2 µM | NCI-H460 > 100 µM

NNC(=S)N/N=C/C(Cl)=C(\Cl)C(=O)O
inactive: U-251 > 100 µM | NCI-H23 > 100 µM | CAKI-1 > 100 µM | EKVX > 100 µM | RXF 393 > 100 µM | OVCAR-4 > 100 µM | CCRF-CEM > 100 µM | HOP-92 > 100 µM | UACC-257 > 100 µM | Malme-3M > 100 µM | TK-10 > 100 µM | SNB-75 > 100 µM | M19-MEL > 100 µM | SK-MEL-28 > 100 µM | LXFL 529 > 100 µM | 786-0 > 100 µM | KM-20L2 > 100 µM | A549 > 100 µM | SK-MEL-5 > 100 µM | M14 > 100 µM | SNB-19 > 100 µM | HCT-116 > 100 µM | XF498 > 100 µM | UO-31 > 100 µM | SN12C > 100 µM | OVCAR-3 > 100 µM | SF-539 > 100 µM | SW-620 > 100 µM | SR > 100 µM | IGROV-1 > 100 µM | NCI-H226 > 100 µM | K562 > 100 µM | HL-60 > 100 µM | SK-MEL-2 > 100 µM | LOX IMVI > 100 µM | A498 > 100 µM | HCC 2998 > 100 µM | DMS-273 > 100 µM | ACHN > 100 µM | SF-268 > 100 µM | OVCAR-5 > 100 µM | UACC-62 > 100 µM | SF-295 > 100 µM | HT-29 > 100 µM | MOLT-4 > 100 µM | DMS-114 > 100 µM | OVCAR-8 > 100 µM | DLD-1 > 100 µM | SNB-78 > 100 µM | RPMI-8226 > 100 µM | NCI-H460 > 100 µM
active: NCI-H522 0.228 µM
> 100 µM: HCT-15

Source: ChEMBL document CHEMBL1201862, “PubChem BioAssay data set” (2004)
